For test [1], the system named is high affinity rolipram binding sites (HARBS, PDE4H). The experiment in a line: Binding to particulate HARBS of whole brain, displacement of [3H]-rolipram (Assay II). More on the design: species or system guinea pig. Conditions: HARBS 50% binding concentration over PDE4 IC50. Here is the method:
(§1) The binding experiments are carried on basis of the methods of Schneider et al. and Zhao et al. with a small modification. Under a protocol approved by the Animal Care and Use Committee of Taipei Medical University, five male guinea pigs (Hartley), weighing 500-600 g, were anesthetized. The whole brains taken therefrom were homogenized with in 10 volumes of cold medium (pH 6.5) containing 20 mM Bis-Tris, 2 mM benzamidine, 2 mM EDTA, 50 mM sodium chloride, 0.1 mM phenylmethanesulfonyl fluoride (PMSF), and 1 mM dithiothreitol. At 4° C., the homogenate was centrifuged at 170 g for 15 min for removing blood vessels and connective tissues, and the supernatant thereof was then re-centrifuged at 40,000 g for 30 min for separating the particulates from the cytosol of cells.
(§2) After incubation, the reaction was stopped by transferring the reaction vessel to a bath of crashed ice. Then the reaction mixture was filtered through a punched glass fiber filter (Whatman GF/B) placed in a mini funnel, which was adopted to a 1.5 ml of Eppendorff's tube for collecting the filtrate in the mini centrifuge at 1000 rpm for 10 seconds. By the same way (centrifugation), it is further washed with 0.3 ml reaction buffer each for three times. The Whatman GF/B filter was mixed with 2 ml of cocktail and counted by the β-scintillation counter (Backman, Fullerton, Calif., USA) for counting the radioactivity thereof.
(In a radioligand displacement assay an active substance lowers the binding of a labelled ligand.)

The target in test [2] is T1, high affinity rolipram binding sites (HARBS, PDE4H).
T1 construct: IC50 for displacement of [3H]-rolipram from HARBS; other: 300 μM, guinea pig, preliminary experimental data; other: guinea pig whole brain particulates; over 300 μM not available due
The description is as above. Further details: species or system guinea pig. Conditions: for IC50: guinea pig whole brain particulates; for bound to HARBS of the whole brain cell particulates: 300 μM, guinea pig, preliminary experimental data. Here is the method: as §1, §2

The subject of the next test is T2, PDE4L (LARBS).
T2 construct: other: considered equal to the PDE4 IC50
The test is described as follows: Binding to peripheral LARBS (PDE4L). Conditions: considered equal to the PDE4 IC50. The text has this: [21]. […] In the brain, there are two binding sites for rolipram, which are high (HARBS) and low affinity rolipram binding sites (LARBS), while in the periphery of bronchi and lung there exist only LARBS. Generally, the anti-inflammatory and the bronchodilatory effects of rolipram are considered as its ability to bind with LARBS [21].

The subject of test [3] is OVA-sensitized and challenged BALB/c mice, methacholine-induced Penh. The experiment in a line: Airway hyperresponsiveness in vivo, Penh by whole-body plethysmography (Assay III). More on the design: species or system mouse. Conditions: i.p., FIG. 3A. Here is the method: (§3) Sensitization, airway challenge, and allergen provocation was carried out as described by Kanehiro et al with some modifications. The female BALB/c mice from 8 to 12 week of age were obtained from National Laboratory Animal Center (Taiwan), and maintained on diets free of ovalbumin (OVA). Mice were sensitized by an intraperitoneal (i.p.) injection of 20 μg of OVA emulsified in 2.25 mg aluminum hydroxide gel in a total volume of 100 μl on days 0 and 14. For comparison, some mice were not sensitized, but received sham injection. All mice were challenged via the airway by OVA (1% in saline) for 30 min on days 28, 29, and 30 by ultrasonic nebulization. […] AHR was assessed on day 73 (48 h after 1% OVA provocation) for each group. […] The AHR was measured in unrestrained animals by barometric plethysmography using a whole-body plethysmograph (WBP) (Buxco, Troy, N.Y., USA). Mice were placed into the main chamber of the WBP and nebulized first with phosphate buffer solution (PBS), then with increasing doses (6.25-50 mg/ml) of methacholine (MCh) for 3 min for each nebulization, followed by readings of breathing parameters for 3 min after each nebulization with determination of enhanced pause (Penh) values. […] The number of inflammatory cells was counted using a hemacytometer (Hausser Sci., Horsham, Pa., USA). […]

The subject of test [4] is cytokines (IL-2, IL-4, IL-5, TNF-α, IFN-γ) in BALF of OVA-sensitized BALB/c mice. The test is described as follows: Cytokines in BALF of OVA-sensitized mice (Assay III). In kind it is in vivo, mouse. The settings on record: FIG. 3C. Here is the method:
as §3

In test [5] the test system is OVA-induced contractions of sensitized guinea pig trachea. The experiment in a line: Cumulative OVA-induced contractions of isolated sensitized trachea in vitro (Assay IV). Conditions: FIG. 4. An excerpt: The guinea pigs were ready for use after day 25 [20]. Under a protocol approved by the Animal Care and Use Committee of Taipei Medical University, the tracheae of guinea pigs (Hartley) were sacrificed and removed therefrom. The tracheae were carefully trimmed off the excessive surrounding tissues and cut into six segments. Each segment consisted of three cartilage rings. All segments were cut open opposite the trachealis. […] The composition of the normal Krebs solution was (mM): […] The tissues were suspended in normal Krebs solution under an initial tension of 1.5 g and allowed to equilibrate for at least 1 h with washing at 15-min intervals. After the tissues were precontracted with KCl (60 mM) and washed with normal Krebs solution, OVA (0.1-100 μg/ml) was cumulatively added, and contractions were allowed to reach a steady state at each concentration. […] The tension of precontraction induced by KCl before experiment was set as 100%.

For test [6], the system named is inflammatory cells in BALF of OVA-sensitized BALB/c mice. The test is described as follows: Inflammatory cells in BALF of OVA-sensitized mice (Assay III). In kind it is in vivo, mouse. Conditions: FIG. 3B. Here is the method: as §3
Setting [7] is: 2 nM [3H]-rolipram, FIG. 2, read-out: IC50 for displacement of [3H]-rolipram from HARBS.
Setting [8] is: over 300 μM not available due to solubility, read-out: concentration for having 50% of HARBS bound.

Read-outs that look alike come from different tables or passages of the source.

Regarding `COc1cc(O)c2c(=O)c(-c3ccc(O)cc3)coc2c1` [Prunetin], the PDE4H/PDE4L ratio result in test [1] is reported as “greater than 5”. The IC50 in test [2] (setting [7]) and in test [2] (setting [8]) was over 300 µM each time. Further, the “bound to HARBS of the whole brain cell particulates” value in test [2] amounted to 24.2%. In addition, the “concentration for binding to an half of the LARBS” value in the test on PDE4L (LARBS) came to 61.9 µM.

Consider `COc1ccc(C2CC(=O)c3c(O)cc(O)cc3O2)cc1O` (centres unmarked) [Hesperetin], for which, in test [3] (3~30 μmol/kg), the “Penh values compared with non-sensitized mice” value was “not significantly different”. For the same compound, the “Penh values induced by 50 mg/ml MCh” value in test [3] (10 and 30 μmol/kg, sensitized mice) is on record as “significantly suppressed”. For the same compound, the IC50 in test [2] (setting [7]) and in test [2] (setting [8]) was over 300 µM each time. Further, the “bound to HARBS of the whole brain cell particulates” value in test [2] came out at 17.5%. Moreover, the “level of IL-5 in BALF” value in test [4] (3 and 10 μmol/kg i.p.) is reported as “not suppressed”. Besides, the “enhancement of IL-2, IL-4, IL-5, TNF-α and IFN-γ levels in BALF” value in test [4] (3~30 μmol/kg, i.p.) is “significantly suppressed”. In addition, in test [5] (30 μM preincubated 15 min), the “OVA (both 10 and 100 μg/ml)-induced contractions” value was “significantly antagonized”. The “OVA (100 μg/ml)-induced contractions” value in test [5] (3~30 μM preincubated 15 min, standardized by 60 mM KCl) is reported as “antagonized”. The “enhancement of eosinophils in BALF” value in test [6] (3 μmol/kg i.p., compared with control group) is listed as “significantly suppressed”. In addition, the “enhancement of total inflammatory cells, macrophages, lymphocytes, neutrophils and eosinophils in BALF” value in test [6] (10 and 30 μmol/kg i.p.) was “significantly suppressed”. Also, the “concentration for binding to an half of the LARBS” value with PDE4L (LARBS) is 28.2 µM.

The values are drawn from patent US20060229358A1, “Pharmaceutical composition containing flavonoids” (Taipei Medical University, priority 2005, published 2006).
